Measured values reported in patent US11834454B2, “Alkynylphenylbenzamide compounds and applications thereof” (SHENZHEN NEWDEL BIOTECH CO., LTD., priority 2021, dated 2023).

Tests used:
[1] = Pharmacokinetic and oral bioavailability tests in SD rats; type: in vivo
Experimental: Pharmacokinetic and oral bioavailability tests were performed in SD rats. According to the drug's solubility, the drug was administered orally and intravenously as a single dose. Animal blood samples were collected at different time points (0, 0.5, 1, 2, 4, 6, 8, 24 hours), and added with heparin for anticoagulation, then centrifugated to obtain the supernatant. Blood samples were analyzed by HPLC-MS, and DAS2.1 was used for data analysis to detect half-life (T½), maximum blood concentration (Cmax), peak time (Tmax), area under the curve (AUC), and bioavailability (BA) and other pharmacokinetic data.

[2] = molecular target: Bcr-Abl (Homo sapiens, UniProt P00519); assay: Kinase selectivity, Z'-LYTE
Experimental: (§1) Enzymatic reaction: In a 384-well plate, added 5 μL of enzyme-substrate system [50 mM 4-hydroxyethylpiperazineethanesulfonic acid (HEPES) pH 7.5, 0.01% BRIJ-35, 10 mM of magnesium chloride (MgCl2), 1 mM of ethylene glycol bis(2-aminoethyl ether)tetraacetic acid (EGTA), 2 μM of Tyr 01 peptide substrate], transferred 5 nL of compound (concentration gradient) using an Echo520 Ultra-Micro Liquid Pipetting System. […] Shaked and mixed, then centrifuged, and reacted at 30° C. in the dark for 1.5 hours.

[3] = molecular target: PDGFRB (Homo sapiens, UniProt P09619); assay: Kinase selectivity, Z'-LYTE
Experimental: as §1

[4] = Effect on the body weight of mice in the allograft study; type: in vivo, CB17-SCID female mice; settings: four doses 6.25, 12.5, 25, 50 mg/kg oral once a day
Experimental: After washed twice with normal saline, the cells were adjusted to a density of 1×10^7 cells/mL and placed on ice, and injected subcutaneously into the right axilla of CB17-SCID female mice (purchased from Viton Lever, Beijing, 6-8 weeks old) as soon as possible, with 200 μL each injection.
The control group was given the same volume of mixed solvent orally. Body weight and tumor volume were recorded every two days.

[5] = Sprague-Dawley (SD), rat, plasma, intravenous injection, 2.0 mg/kg
[6] = Sprague-Dawley (SD), rat, plasma, oral, 10.0 mg/kg

Bcr-Abl, sequence (P00519 242-493 limits assumed): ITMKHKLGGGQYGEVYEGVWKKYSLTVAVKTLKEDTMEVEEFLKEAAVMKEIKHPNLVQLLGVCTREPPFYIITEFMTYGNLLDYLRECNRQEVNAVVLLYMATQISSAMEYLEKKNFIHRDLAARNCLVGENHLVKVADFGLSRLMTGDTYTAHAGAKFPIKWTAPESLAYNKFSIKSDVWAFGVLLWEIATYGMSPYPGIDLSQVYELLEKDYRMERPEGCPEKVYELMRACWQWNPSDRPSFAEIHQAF
PDGFRB, sequence (P09619 33-1106, species assumed): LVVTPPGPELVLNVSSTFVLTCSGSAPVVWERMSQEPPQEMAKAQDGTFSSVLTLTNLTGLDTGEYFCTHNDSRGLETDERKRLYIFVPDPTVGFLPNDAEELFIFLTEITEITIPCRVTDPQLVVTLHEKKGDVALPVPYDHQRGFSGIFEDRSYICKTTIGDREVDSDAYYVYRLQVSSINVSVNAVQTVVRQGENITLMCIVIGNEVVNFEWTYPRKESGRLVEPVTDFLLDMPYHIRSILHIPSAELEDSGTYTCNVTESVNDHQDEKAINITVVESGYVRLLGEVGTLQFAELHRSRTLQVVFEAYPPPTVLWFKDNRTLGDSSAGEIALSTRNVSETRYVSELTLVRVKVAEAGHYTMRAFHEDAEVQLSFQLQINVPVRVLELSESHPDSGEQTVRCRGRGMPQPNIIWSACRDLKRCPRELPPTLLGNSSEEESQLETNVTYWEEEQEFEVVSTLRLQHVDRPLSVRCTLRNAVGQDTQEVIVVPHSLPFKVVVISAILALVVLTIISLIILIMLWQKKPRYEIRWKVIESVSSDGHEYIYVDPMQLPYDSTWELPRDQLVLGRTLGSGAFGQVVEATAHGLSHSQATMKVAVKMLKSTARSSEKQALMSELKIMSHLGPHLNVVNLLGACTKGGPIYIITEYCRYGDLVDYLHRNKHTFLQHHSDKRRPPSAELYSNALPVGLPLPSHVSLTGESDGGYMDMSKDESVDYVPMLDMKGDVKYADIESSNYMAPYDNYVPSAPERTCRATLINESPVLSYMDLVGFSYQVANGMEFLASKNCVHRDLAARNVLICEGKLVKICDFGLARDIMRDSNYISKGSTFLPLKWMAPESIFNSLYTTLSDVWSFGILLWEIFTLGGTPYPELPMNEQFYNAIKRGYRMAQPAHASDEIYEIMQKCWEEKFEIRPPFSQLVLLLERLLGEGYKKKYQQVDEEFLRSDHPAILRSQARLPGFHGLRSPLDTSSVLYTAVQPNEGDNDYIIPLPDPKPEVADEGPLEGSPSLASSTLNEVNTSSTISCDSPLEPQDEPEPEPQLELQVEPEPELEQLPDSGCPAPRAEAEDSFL

Cc1c(C#Cc2cnc3ccc(N4CCC(O)CC4)nn23)cccc1C(=O)Nc1cc(Cl)cc(C(F)(F)F)c1 [XS3-55, N-(3-CHLORO-5-(TRIFLUOROMETHYL)PHENYL)-3-((6-(4-HYDROXYPIPERIDIN-1-YL)IMIDAZO[1,2-B]PYRIDAZINE-3-YL)ETHYNYL)-2-METHYLBENZAMIDE]
AUC(0-inf) [1, 5]: 549 µg·h/mL | AUC(0-t) [1, 5]: 358 µg·h/mL | Cmax [1, 5]: 46100 ng/mL | Tmax [1, 5]: 0.08 h | half-life [1, 5]: 16.1 h | clearance ([1]; Sprague-Dawley (SD), rat, plasma, intravenous injection, 2.0 mg/kg, read-out: Clearance rate (converted)): 3.65 mL/h/kg | AUC(0-inf) [1, 6]: 878 µg·h/mL | AUC(0-t) [1, 6]: 561 µg·h/mL | Cmax [1, 6]: 44100 ng/mL | Tmax [1, 6]: 4 h | half-life [1, 6]: 15.2 h | BA ([1]; oral 10.0 mg/kg vs intravenous 2.0 mg/kg): 31.32% | IC50 [2]: > 10 µM | IC50 [3]: > 10 µM | effect on mouse body weight [4]: no obvious adverse effect
